# What was measured:
# DYRK3 = DYRK3 (Homo sapiens, UniProt O43781); experiment: Kinome selectivity screen DYRK3; assay type: biochemical; conditions: 1 μM compound
# Description: (§1) Kinome Selectivity Screen:
# (§2) Kinase selectivity was assessed using the Life Technologies SelectScreen Kinase Profiling Service in a custom panel of 76 kinases selected to provide broad representative coverage of all kinase families. Kinase activity assays employed either the Z′-LYTE or Adapta assay technologies with ATP concentrations at or near the KM, ATP for each kinase and a test compound concentration of 1 μM.
# AMPK A1/B1/G1 = AMPK A1/B1/G1 (Homo sapiens, UniProt Q13131); experiment: Kinome selectivity screen AMPK; assay type: biochemical; conditions: 1 μM compound
# Description: as §1, §2
# [1] = molecular target: PIK3CA/PIK3R1 (p110 alpha/p85 alpha) (Homo sapiens, UniProt P42336); experiment: Kinome selectivity screen PIK3CA/PIK3R1; assay type: biochemical; conditions: 1 μM compound
# Description: as §1, §2
# PAK4 = PAK4 (Homo sapiens, UniProt O96013); experiment: Kinome selectivity screen PAK4; assay type: biochemical; conditions: 1 μM compound
# Description: as §1, §2
# BTK = BTK (Homo sapiens, UniProt Q06187); experiment: Kinome selectivity screen BTK; assay type: biochemical; conditions: 1 μM compound
# Description: as §1, §2
# MAP4K4 (HGK) = MAP4K4 (HGK) (Homo sapiens, UniProt O95819); experiment: Kinome selectivity screen MAP4K4; assay type: biochemical; conditions: 1 μM compound
# Description: as §1, §2
# PLK1 = PLK1 (Homo sapiens, UniProt P53350); experiment: Kinome selectivity screen PLK1; assay type: biochemical; conditions: 1 μM compound
# Description: as §1, §2
# pP38 in HEK293 cells = experiment: pP38 response in HEK293 cells; assay type: cell-based; conditions: at 10 μM
# Description: (§3) To rapidly assess the cellular activity (EC50) with full dose response curves of the MKK7 covalent inhibitors, according to some embodiments of the present invention, an in-cell western assay was adapted to a 384 well plate format over traditional western blot, and monitored phospho-JNK (pJNK) levels in response to osmotic shock. We first characterized the dynamics of pJNK in response to sorbitol. Sufficient dynamic range for pJNK is achieved at 20 minutes in HEK293 cells and at 40 minutes in 3T3 and Beas2B cells. The compound's activity was assessed by pre-treating cells with either compound or DMSO for 2 hours, followed by Sorbitol stimulation. The response of pJNK, and its substrates, pc-Jun and pATF2, was measured, as well as pP38, which is a substrate of MKK4 but not MKK7, and pERK in HEK293 cells, and the results are presented in Table 5 below.
# With similar values for pcJun (2.26 μM and 1.67 μM, respectively) and pATF2 (2.79 μM 5.19 μM, respectively).
# pATF2 in HEK293 cells = experiment: pATF2 inhibition in HEK293 cells; assay type: cell-based; conditions: Homo sapiens
# Description: HEK293, Beas2B and 3T3 cells were plated 24 hours before procedure on 384 well clear bottom black flat plates (Corning) pre-coated with Fibronectin (Sigma) diluted in PBS to a concentration of 5 μg/ml 45 minutes prior to cells introduction. Cells were plated using Multidrop™ Combi reagent dispenser (Thermo Fisher Scientific). Compound, reagents and antibody dispensing as well as washes were performed with a CyBio liquid handler (Analytik). Cells were pre-incubated with a small molecule or up to 1% DMSO for 2 h before fixation. HEK293, 3T3 or Beas2B cells were treated with 0.6M/0.2M/0.2M D-Sorbitol/PBS (Sigma) for 20/40/40 min. respectively, before fixation. Media was removed and wells were immediately fixed with 150 μl per well of 3.7% formaldehyde/PBS fixing solution for 20 min. Formaldehyde was then aspired and cells were permeabilized with 150 μl of 0.5% Triton x-100/PBS solution for 10 min. After aspiration cells were washed with ice-cold methanol and stored at −20° C., for 10 min. Methanol was aspired and cells were blocked with 150 μl blocking buffer (LICOR) for 90 min. Primary antibody Phospho-SAPK/JNK T183/Y185 (CST; 9251S) was diluted 1:1000 in blocking buffer and was applied 50 μl per well, except control wells to which only blocking buffer was applied, O.N. (16 h) at 4° C. with mild shaking. […] Wells signals were analyzed with Odyssey software. […]
# as §3, with “We first characterized the dynamics of pJNK in response to sorbitol. Sufficient dynamic range for pJNK is achieved at 20 minutes in HEK293 cells and at 40 minutes in 3T3 and Beas2B cells.” left out
# CHEK1 (CHK1) = CHEK1 (CHK1) (Homo sapiens, UniProt O14757); experiment: Kinome selectivity screen CHEK1; assay type: biochemical; conditions: 1 μM compound
# Description: as §1, §2
# PDK1 Direct = PDK1 Direct (Homo sapiens, UniProt O15530); experiment: Kinome selectivity screen PDK1 Direct; assay type: biochemical; conditions: 1 μM compound
# Description: as §1, §2
# RPS6KA3 (RSK2) = RPS6KA3 (RSK2) (Homo sapiens, UniProt P51812); experiment: Kinome selectivity screen RPS6KA3; assay type: biochemical; conditions: 1 μM compound
# Description: as §1, §2
# MAPK8 (JNK1) = MAPK8 (JNK1) (Homo sapiens, UniProt P45983); experiment: Kinome selectivity screen MAPK8; assay type: biochemical; conditions: 1 μM compound
# Description: as §1, §2
# TAOK2 (TAO1) = TAOK2 (TAO1) (Homo sapiens, UniProt Q9UL54); experiment: Kinome selectivity screen TAOK2; assay type: biochemical; conditions: 1 μM compound
# Description: as §1, §2
# EPHA2 = EPHA2 (Homo sapiens, UniProt P29317); experiment: Kinome selectivity screen EPHA2; assay type: biochemical; conditions: 1 μM compound
# Description: as §1, §2
# IGF1R = IGF1R (Homo sapiens, UniProt P08069); experiment: Kinome selectivity screen IGF1R; assay type: biochemical; conditions: 1 μM compound
# Description: as §1, §2
# ROCK2 = ROCK2 (Homo sapiens, UniProt O75116); experiment: Kinome selectivity screen ROCK2; assay type: biochemical; conditions: 1 μM compound
# Description: as §1, §2
# JNK activation = experiment: KTR reporter live cell imaging of JNK activation; assay type: cell-based; conditions: Homo sapiens; HEK293 cells; read-out: EC50 of test and control compounds
# Excerpt: As an orthogonal assay for the ICW we used a KTR reporter cell line for JNK activation via live cell imaging.
# AURKA (Aurora A) = AURKA (Aurora A) (Homo sapiens, UniProt O14965); experiment: Kinome selectivity screen AURKA; assay type: biochemical; conditions: 1 μM compound
# Chain of TAOK2 (TAO1) (Q9UL54 whole entry): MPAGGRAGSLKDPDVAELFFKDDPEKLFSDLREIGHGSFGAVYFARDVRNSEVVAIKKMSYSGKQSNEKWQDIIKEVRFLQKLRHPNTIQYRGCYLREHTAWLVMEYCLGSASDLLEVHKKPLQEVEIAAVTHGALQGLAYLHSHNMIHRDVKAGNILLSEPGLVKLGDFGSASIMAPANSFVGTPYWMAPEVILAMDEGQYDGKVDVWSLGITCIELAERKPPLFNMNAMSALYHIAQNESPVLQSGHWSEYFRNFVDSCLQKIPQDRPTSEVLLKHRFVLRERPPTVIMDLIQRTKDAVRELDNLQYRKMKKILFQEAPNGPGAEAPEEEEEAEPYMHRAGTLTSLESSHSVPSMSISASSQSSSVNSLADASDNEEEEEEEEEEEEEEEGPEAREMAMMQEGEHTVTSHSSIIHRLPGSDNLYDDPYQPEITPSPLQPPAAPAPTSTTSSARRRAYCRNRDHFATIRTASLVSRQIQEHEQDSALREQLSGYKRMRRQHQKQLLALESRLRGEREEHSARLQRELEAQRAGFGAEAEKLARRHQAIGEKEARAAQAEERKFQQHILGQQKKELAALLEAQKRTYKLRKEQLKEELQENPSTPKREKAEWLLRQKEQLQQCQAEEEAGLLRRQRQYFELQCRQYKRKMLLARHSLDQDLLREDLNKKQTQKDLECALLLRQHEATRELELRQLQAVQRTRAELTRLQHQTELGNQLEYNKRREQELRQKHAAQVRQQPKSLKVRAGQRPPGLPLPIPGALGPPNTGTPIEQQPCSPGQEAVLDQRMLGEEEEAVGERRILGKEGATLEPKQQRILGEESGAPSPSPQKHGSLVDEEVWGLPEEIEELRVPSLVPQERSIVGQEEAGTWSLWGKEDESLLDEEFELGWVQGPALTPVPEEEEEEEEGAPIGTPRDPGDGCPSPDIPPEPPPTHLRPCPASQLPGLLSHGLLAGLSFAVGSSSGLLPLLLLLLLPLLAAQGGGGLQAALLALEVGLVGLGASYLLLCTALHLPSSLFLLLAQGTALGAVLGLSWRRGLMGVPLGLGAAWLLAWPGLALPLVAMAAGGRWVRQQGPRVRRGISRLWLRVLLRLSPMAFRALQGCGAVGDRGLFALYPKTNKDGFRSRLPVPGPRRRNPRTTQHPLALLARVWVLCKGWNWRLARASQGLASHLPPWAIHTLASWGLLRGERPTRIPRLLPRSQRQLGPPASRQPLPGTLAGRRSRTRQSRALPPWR
# Chain of RPS6KA3 (RSK2) (P51812 whole entry): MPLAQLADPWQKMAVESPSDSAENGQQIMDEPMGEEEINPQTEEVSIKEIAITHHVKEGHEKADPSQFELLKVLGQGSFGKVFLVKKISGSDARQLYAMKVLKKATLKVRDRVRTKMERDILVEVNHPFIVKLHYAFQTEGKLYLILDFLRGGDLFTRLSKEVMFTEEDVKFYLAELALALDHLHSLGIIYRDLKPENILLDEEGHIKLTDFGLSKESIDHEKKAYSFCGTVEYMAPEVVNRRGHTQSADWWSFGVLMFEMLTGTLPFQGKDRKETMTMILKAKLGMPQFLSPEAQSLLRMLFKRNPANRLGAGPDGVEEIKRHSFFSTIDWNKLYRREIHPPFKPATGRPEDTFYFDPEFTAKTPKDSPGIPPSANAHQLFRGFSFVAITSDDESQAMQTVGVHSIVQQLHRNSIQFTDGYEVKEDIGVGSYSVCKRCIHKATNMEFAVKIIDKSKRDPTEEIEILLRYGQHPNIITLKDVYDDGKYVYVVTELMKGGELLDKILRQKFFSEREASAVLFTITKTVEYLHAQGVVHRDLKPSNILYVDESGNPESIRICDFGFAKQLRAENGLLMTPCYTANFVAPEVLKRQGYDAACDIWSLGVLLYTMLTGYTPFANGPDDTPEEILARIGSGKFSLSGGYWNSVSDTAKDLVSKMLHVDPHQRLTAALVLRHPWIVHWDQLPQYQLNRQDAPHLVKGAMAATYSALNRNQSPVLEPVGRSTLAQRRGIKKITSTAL
# Chain of MAP4K4 (HGK) (O95819 whole entry): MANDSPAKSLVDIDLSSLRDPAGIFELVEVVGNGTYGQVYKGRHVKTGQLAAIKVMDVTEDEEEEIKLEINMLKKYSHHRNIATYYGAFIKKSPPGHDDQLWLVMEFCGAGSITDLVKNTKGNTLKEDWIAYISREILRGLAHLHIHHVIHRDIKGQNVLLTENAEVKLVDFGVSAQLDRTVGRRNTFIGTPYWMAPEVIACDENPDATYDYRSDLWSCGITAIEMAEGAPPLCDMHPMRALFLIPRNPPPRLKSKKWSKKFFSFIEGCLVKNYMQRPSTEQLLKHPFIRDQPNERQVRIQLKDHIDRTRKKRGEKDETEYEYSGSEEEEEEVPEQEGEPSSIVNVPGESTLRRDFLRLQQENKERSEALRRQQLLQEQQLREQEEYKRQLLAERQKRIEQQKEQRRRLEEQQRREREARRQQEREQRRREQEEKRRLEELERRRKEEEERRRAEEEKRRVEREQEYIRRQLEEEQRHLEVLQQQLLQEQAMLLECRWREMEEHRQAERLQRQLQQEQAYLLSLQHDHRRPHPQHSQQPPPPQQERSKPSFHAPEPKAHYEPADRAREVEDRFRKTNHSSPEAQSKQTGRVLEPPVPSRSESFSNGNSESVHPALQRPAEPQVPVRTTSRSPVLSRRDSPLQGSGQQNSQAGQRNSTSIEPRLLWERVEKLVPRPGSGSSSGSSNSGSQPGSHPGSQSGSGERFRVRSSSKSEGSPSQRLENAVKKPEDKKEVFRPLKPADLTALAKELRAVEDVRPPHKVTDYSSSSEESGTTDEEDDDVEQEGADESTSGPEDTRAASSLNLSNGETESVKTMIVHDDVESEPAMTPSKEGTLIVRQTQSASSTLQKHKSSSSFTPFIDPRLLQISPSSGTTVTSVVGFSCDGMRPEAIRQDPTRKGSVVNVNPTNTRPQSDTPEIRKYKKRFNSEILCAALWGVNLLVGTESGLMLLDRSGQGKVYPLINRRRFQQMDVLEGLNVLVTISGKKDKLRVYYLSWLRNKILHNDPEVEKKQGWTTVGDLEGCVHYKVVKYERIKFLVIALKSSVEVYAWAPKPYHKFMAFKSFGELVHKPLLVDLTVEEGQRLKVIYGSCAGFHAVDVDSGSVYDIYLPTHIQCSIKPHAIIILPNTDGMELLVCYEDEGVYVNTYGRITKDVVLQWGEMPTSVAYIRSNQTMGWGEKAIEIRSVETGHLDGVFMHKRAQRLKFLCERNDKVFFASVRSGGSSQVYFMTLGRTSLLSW
# Chain of ROCK2 (O75116 whole entry): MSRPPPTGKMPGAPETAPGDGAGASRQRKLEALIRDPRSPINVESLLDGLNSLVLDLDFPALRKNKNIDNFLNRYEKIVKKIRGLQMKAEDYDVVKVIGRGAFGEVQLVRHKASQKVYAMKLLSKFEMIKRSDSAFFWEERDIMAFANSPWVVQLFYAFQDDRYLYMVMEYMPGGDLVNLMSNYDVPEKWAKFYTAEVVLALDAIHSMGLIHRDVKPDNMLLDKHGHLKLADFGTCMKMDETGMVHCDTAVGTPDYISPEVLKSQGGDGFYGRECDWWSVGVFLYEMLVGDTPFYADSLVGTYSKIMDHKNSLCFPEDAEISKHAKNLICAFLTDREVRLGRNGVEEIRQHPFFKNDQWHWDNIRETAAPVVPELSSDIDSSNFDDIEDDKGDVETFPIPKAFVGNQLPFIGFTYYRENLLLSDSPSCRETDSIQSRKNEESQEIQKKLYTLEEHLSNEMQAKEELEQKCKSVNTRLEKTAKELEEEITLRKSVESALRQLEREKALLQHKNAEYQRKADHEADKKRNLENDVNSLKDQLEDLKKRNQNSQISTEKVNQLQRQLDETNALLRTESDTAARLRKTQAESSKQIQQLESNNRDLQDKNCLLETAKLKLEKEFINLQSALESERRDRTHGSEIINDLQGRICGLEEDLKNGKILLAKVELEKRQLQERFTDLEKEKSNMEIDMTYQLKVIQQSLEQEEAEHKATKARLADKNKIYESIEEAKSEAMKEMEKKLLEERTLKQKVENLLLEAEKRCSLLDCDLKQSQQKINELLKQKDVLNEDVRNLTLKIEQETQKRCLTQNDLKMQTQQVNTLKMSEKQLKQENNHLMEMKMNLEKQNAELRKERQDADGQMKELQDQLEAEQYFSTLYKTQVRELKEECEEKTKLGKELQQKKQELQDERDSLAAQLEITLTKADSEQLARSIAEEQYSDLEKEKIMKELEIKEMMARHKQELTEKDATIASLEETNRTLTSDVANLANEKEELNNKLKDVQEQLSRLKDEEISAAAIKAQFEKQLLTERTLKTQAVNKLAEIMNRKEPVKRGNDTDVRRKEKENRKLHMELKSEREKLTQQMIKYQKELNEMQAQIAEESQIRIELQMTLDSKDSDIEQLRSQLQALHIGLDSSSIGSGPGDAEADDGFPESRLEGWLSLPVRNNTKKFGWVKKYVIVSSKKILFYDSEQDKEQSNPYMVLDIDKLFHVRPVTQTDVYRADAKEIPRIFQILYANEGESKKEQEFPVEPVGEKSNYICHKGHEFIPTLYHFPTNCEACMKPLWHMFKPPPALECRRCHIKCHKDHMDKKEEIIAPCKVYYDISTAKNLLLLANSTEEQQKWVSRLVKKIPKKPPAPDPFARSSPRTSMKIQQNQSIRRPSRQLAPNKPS
# Chain of MAPK8 (JNK1) (P45983 whole entry): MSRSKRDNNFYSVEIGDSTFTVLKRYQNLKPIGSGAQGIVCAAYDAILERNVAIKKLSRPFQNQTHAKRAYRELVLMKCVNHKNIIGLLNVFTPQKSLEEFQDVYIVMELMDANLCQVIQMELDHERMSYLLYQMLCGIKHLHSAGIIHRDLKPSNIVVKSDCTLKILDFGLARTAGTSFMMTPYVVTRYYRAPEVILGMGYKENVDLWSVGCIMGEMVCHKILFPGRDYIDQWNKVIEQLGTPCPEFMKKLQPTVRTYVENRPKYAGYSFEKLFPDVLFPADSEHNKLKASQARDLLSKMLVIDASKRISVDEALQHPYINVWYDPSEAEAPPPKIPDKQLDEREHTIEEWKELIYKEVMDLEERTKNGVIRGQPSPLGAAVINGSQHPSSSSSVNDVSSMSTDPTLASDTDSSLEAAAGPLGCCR
Structure (SMILES),inhibition at 1 µM (DYRK3) [%],inhibition at 1 µM (AMPK A1/B1/G1) [%],inhibition at 1 µM [1] [%],inhibition at 1 µM (PAK4) [%],inhibition at 1 µM (BTK) [%],inhibition at 1 µM (MAP4K4 (HGK)) [%],inhibition at 1 µM (PLK1) [%],effect on pP38 levels (pP38 in HEK293 cells),EC50 (pATF2 in HEK293 cells) [µM],inhibition at 1 µM (CHEK1 (CHK1)) [%],inhibition at 1 µM (PDK1 Direct) [%],inhibition at 1 µM (RPS6KA3 (RSK2)) [%],inhibition at 1 µM (MAPK8 (JNK1)) [%],inhibition at 1 µM (TAOK2 (TAO1)) [%],inhibition at 1 µM (EPHA2) [%],inhibition at 1 µM (IGF1R) [%],inhibition at 1 µM (ROCK2) [%],EC50 (JNK activation) [µM],inhibition at 1 µM (AURKA (Aurora A)) [%]
C=CC(=O)Nc1cccc(-c2n[nH]c3ccccc23)c1 [GO32],11,-5,-6,-11,11,58,1,no effect,2.79,10,22,2,15,12,-16,6,-2,,
C=CC(=O)Nc1cccc(-c2n[nH]c3cc(C)ccc23)c1 [GO80],22,-5,-19,-16,15,42,3,did not affect,5.19,2,26,-1,16,14,-13,7,-4,3.3,4

# Reference: patent US20210238173A1, “MITOGEN-ACTIVATED PROTEIN KINASE KINASE 7 INHIBITORS” (Yeda Research and Development Co. Ltd., priority 2018, published 2021)
